Data as given in patent US20110105436A1, “HETEROARYL COMPOUNDS, COMPOSITIONS, AND METHODS OF USE IN CANCER TREATMENT” (AUCKLAND UNISERVICES LIMITED, priority 2008, published 2011).

How the values were obtained:
[1] = test system: RCC4 cells; assay: XTT assay in VHL-deficient RCC4 cells; format: cell-based; details: Homo sapiens, 96 h, XTT assay, VHL-deficient RCC4 cells, four days
Description: (§1) Cell Viability and XTT assays. For cell viability, 100,000 cells were plated in a 12-well plate. The following day, 1.25 μM STF-62247 was added in the presence or absence of 1 mM 3-MA for 24 hours at 37° C. Cells were trypsinized and counted by trypan blue exclusion. For XTT assays, 5000 RCC4 with and without VHL cells or 2,500 SN12C with and without VHL shRNA cells were plated in 96-well plates. The following day, vehicle (DMSO), STF-62247 or each of 19 analogs were added to media by serial dilution. Four days later, the media was aspirated and XTT solution containing 0.3 mg/ml of XTT (Sigma Chemical Co) in Phenol Red-free media, 20% FCS and 2.65 mg/ml N-methyl dibenzopyrazine methyl sulfate (PMS) was added to the cells and incubated at 37° C. for 1-2 hours. Metabolism of XTT was quantified by measuring the absorbance at 450 nm on a plate reader.

[2] = test system: RCC4/VHL cells; assay: XTT assay, RCC4/VHL versus RCC4 cells (selectivity ratio); format: cell-based; details: selectivity ratio, IC50 in RCC4/VHL cells/IC50 in RCC4 cells
Description: as §1
A. RCC4 and RCC4/VHL were treated with 1.25 μM of each 19 analogs for 20 hours and the presence of vacuoles was examined under light microscopy. B. Western blot for LC3 after treatment with each compound. Tubulin was used as loading control. Ratio is the relative from the IC50 in RCC4/VHL cells/IC50 in RCC4 cells. C. Acidic vesicle organelles (AVO) measured by FACS analysis in cells treated with 1.25 μM of STF-62247 or with compounds 21, 15, 25, 47, and 53 and stained with acridine orange.

Row | Compound | IC50 ([1]; Table 1) [µM] | melting point [°C] | IC50 ([1]; Table 2) [µM] | Ratio ([2]; Table 2) | Ratio ([2]; Table 1)
1 | CC(C)(C)c1cccc(Nc2nc(-c3ccncc3)cs2)c1 [Compound 11, N-(3-tert-Butylphenyl)-4-(4-pyridinyl)-1,3-thiazol-2-amine] | > 40 | 208 to 210 |  |  | 
2 | FC(F)(F)c1ccccc1Nc1nc(-c2ccncc2)cs1 [Compound 117, 4-(4-Pyridinyl)-N-[2-(trifluoromethyl)phenyl]-1,3-thiazol-2-amine] | > 40 | 170 to 172 |  |  | 
3 | Cc1cccc(Nc2nc(-c3ccncc3)c(C(=O)NCCN(C)C)s2)c1 [Compound 93, N-[2-(Dimethylamino)ethyl]-2-[(3-methylphenyl)amino]-4-(4-pyridinyl)-1,3-thiazole-5-carboxamide] | > 40 | 189 to 191 |  |  | 
4 | COC(=O)CCc1sc(Nc2cccc(C)c2)nc1-c1ccncc1 [Compound 79, Methyl 3-[2-[(3-Methylphenyl)amino]-4-(4-pyridinyl)-1,3-thiazol-5-yl]propanoate] | > 40 | 121 to 123 |  |  | 
5 | c1cc(-c2csc(Nc3ccc4c(c3)OCO4)n2)ccn1 [Compound 59, N-(1,3-Benzodioxol-5-yl)-4-(4-pyridinyl)-1,3-thiazol-2-amine] | > 40 | 201 to 203 |  |  | 
6 | N#Cc1cccc(Nc2nc(-c3ccncc3)cs2)c1 [Compound 127, 3-{[4-(4-Pyridinyl)-1,3-thiazol-2-yl]amino}benzonitrile] | > 40 | 252 to 253 |  |  | 
7 | COc1cc(Nc2nc(-c3ccncc3)cs2)cc(OC)c1 [Compound 57, N-(3,5-Dimethoxyphenyl)-4-(4-pyridinyl)-1,3-thiazol-2-amine] | > 40 | 229 to 231 |  |  | 
8 | Cc1cccc(Nc2nc(-c3ccnc(N4CCOCC4)c3)cs2)c1 [Compound 197, N-(3-Methylphenyl)-4-[2-(4-morpholinyl)-4-pyridinyl]-1,3-thiazol-2-amine] |  | 190 to 191 |  |  | 
9 | O=[N+]([O-])c1ccc(Nc2nc(-c3ccncc3)cs2)cc1 [Compound 35, N-(4-Nitrophenyl)-4-(4-pyridinyl)-1,3-thiazol-2-amine] | > 40 | > 290 |  |  | 
10 | CCOC(=O)c1sc(Nc2ccc3c(c2)CCC3)nc1-c1ccncc1 [Compound 89, Ethyl 2-(2,3-Dihydro-1H-inden-5-ylamino)-4-(4-pyridinyl)-1,3-thiazole-5-carboxylate] | > 40 | 203 to 205 |  |  | 
11 | O=[N+]([O-])c1ccccc1Nc1nc(-c2ccncc2)cs1 [Compound 119, N-[2-Nitrophenyl]-4-(4-pyridinyl)-1,3-thiazol-2-amine] | > 40 | 127 to 130 |  |  | 
12 | FC(F)(F)c1cccc(Nc2nc(-c3ccncc3)cs2)c1 [Compound 19, 4-(4-Pyridinyl)-N-[3-(trifluoromethyl)phenyl]-1,3-thiazol-2-amine] | > 40 | 239 to 241 |  |  | 
13 | Cc1cccc(N(CCO)c2nc(-c3ccncc3)cs2)c1 [Compound 97, 2-{3-Methyl[4-(4-pyridinyl)-1,3-thiazol-2-yl]anilino}ethanol] | > 40 | 149 to 151 |  |  | 
14 | Fc1cccc(Nc2nc(-c3ccncc3)cs2)c1 [Compound 121, N-(3-Fluorophenyl)-4-(4-pyridinyl)-1,3-thiazol-2-amine] | > 40 | 229 to 230 |  |  | 
15 | O=C(Nc1nc(-c2ccncc2)cs1)c1ccccc1 [Compound 99, N-[4-(4-Pyridinyl)-1,3-thiazol-2-yl]benzamide] | > 40 | 241 to 243 |  |  | 
16 | Cc1ccccc1Nc1nc(-c2ccncc2)cs1 [Compound 111, N-(2-Methylphenyl)-4-(4-pyridinyl)-1,3-thiazol-2-amine] | > 40 | 158 to 160 |  |  | 
17 | Cc1cccc(Nc2nc(-c3ccnc(C)c3)cs2)c1 [Compound 145, N-(3-Methylphenyl)-4-(2-methyl-4-pyridinyl)-1,3-thiazol-2-amine] |  | 198 to 200 | > 40 |  | 
18 | Cc1cccc(Nc2nc(-c3ccnc(N4CCN(C)CC4)c3)cs2)c1 [Compound 198, N-(3-Methylphenyl)-4-[2-(4-methyl-1-piperazinyl)-4-pyridinyl]-1,3-thiazol-2-amine] |  | 141 to 143 |  |  | 
19 | Fc1cccc(F)c1Nc1nc(-c2ccncc2)cs1 [Compound 139, N-(2,6-Difluorophenyl)-4-(4-pyridinyl)-1,3-thiazol-2-amine] | > 40 | 209 to 211 |  |  | 
20 | COc1ccc(C(=O)Nc2nc(-c3ccncc3)cs2)cc1 [Compound 102, 4-Methoxy-N-[4-(4-pyridinyl)-1,3-thiazol-2-yl]benzamide] | > 40 | 271 to 274 |  |  | 

Row | Compound | IC50 ([1]; Table 1) [µM] | melting point [°C] | IC50 ([1]; Table 2) [µM] | Ratio ([2]; Table 2) | Ratio ([2]; Table 1)
21 | Cc1cccc(Nc2nc(-c3ccncc3N)cs2)c1 [Compound 182] |  | 159 to 161 | > 40 |  | 
22 | O=[N+]([O-])c1cccc(Nc2nc(-c3ccncc3)cs2)c1 [Compound 129, N-(3-Nitrophenyl)-4-(4-pyridinyl)-1,3-thiazol-2-amine] | > 40 | 244 to 247 |  |  | 
23 | COc1cc(Nc2nc(-c3ccncc3)cs2)cc(OC)c1OC [Compound 63, 4-(4-Pyridinyl)-N-(3,4,5-trimethoxyphenyl)-1,3-thiazol-2-amine] | > 40 | 207 to 209 |  |  | 
24 | Cc1ccc(C(=O)Nc2nc(-c3ccncc3)cs2)cc1 [Compound 101, 4-Methyl-N-[4-(4-pyridinyl)-1,3-thiazol-2-yl]benzamide] | > 40 | 238 to 241 |  |  | 
25 | Cc1cccc(Nc2nc(-c3ccncc3)co2)c1 [Compound 105, N-(3-Methylphenyl)-4-(4-pyridinyl)-1,3-oxazol-2-amine] | > 40 | 201 to 204 |  |  | 
26 | Cc1cccc(C(=O)Nc2nc(-c3ccncc3)cs2)c1 [Compound 100, 3-Methyl-N-[4-(4-pyridinyl)-1,3-thiazol-2-yl]benzamide] | > 40 | 201 to 202 |  |  | 
27 | COc1ccc(Nc2nc(-c3ccncc3)cs2)cc1O [Compound 51, 2-Methoxy-5-{[4-(4-pyridinyl)-1,3-thiazol-2-yl]amino}phenol] |  | 230 to 232 |  |  | 
28 | Cc1cccc(Nc2nc(-c3ccncc3)c[nH]2)c1 [Compound 196, N-(3-Methylphenyl)-4-(4-pyridinyl)-1H-imidazol-2-amine] |  | 170 to 171 |  |  | 
29 | Cc1cccc(Nc2nc(-c3ccnc(N(C)C)c3)cs2)c1 [Compound 199, N,N-Dimethyl-4-{2-[(3-methylphenyl)amino]-1,3-thiazol-4-yl}-2-pyridinamine] |  | 148 to 150 |  |  | 
30 | Cc1cccc(Nc2nc(-c3ccncc3CCCO)cs2)c1 [Compound 187, 3-(4-{2-[(3-Methylphenyl)amino]-1,3-thiazol-4-yl}-3-pyridinyl)-1-propanol] |  |  | 6.8 | >5.9 | 
31 | Cc1cccc(N(C)c2nc(-c3ccncc3)cs2)c1 [Compound 95, N-Methyl-N-(3-methylphenyl)-4-(4-pyridinyl)-1,3-thiazol-2-amine] | 28 |  |  |  | 0.6
32 | Cc1cccc(Nc2nc(-c3ccnc4ccccc34)cs2)c1 [Compound 192, N-(3-Methylphenyl)-4-(4-quinolinyl)-1,3-thiazol-2-amine] |  |  | 12.3 | 1.6 | 
33 | CC(=O)Nc1cnccc1-c1csc(Nc2cccc(C)c2)n1 [Compound 183] |  |  | 33.3 | 1.0 | 
34 | OCCc1ccc(Nc2nc(-c3ccncc3)cs2)cc1 [Compound 23, 2-(4-{[4-(4-Pyridinyl)-1,3-thiazol-2-yl]amino}phenyl)ethanol] | 5 |  |  |  | 16
35 | Cc1cccc(Nc2nc(-c3ccnc(Cl)c3)cs2)c1 [Compound 150, 4-(2-Chloro-4-pyridinyl)-N-(3-methylphenyl)-1,3-thiazol-2-amine] |  |  | 2.2 | 3.8 | 
36 | Oc1ccc(Nc2nc(-c3ccccn3)cs2)cc1 [Compound 69, 4-{[4-(2-Pyridinyl)-1,3-thiazol-2-yl]amino}phenol] | 36 |  |  |  | 0.7
37 | CCc1cnccc1-c1csc(Nc2cccc(C)c2)n1 [Compound 185, 4-(3-Ethyl-4-pyridinyl)-N-(3-methylphenyl)-1,3-thiazol-2-amine] |  |  | 6.2 | 2.8 | 
38 | Cc1cccc(Nc2nc(-c3ccncc3)c(C)s2)c1 [Compound 71, 5-Methyl-N-(3-methylphenyl)-4-(4-pyridinyl)-1,3-thiazol-2-amine] | 10 |  |  |  | >4
39 | Cc1cccc(Nc2nc(-c3ccncc3Cl)cs2)c1 [Compound 174, 4-(3-Chloro-4-pyridinyl)-N-(3-methylphenyl)-1,3-thiazol-2-amine] |  |  | 2.9 | >13.8 | 
